Measurements from patent publication US20230414546A1, “Combined Therapy Against Cancer” (UNIVERSITAT POLITÈCNICA DE CATALUNYA, priority 2020, published 2023).

Tests used:
[1] = system: osteosarcoma cell lines; conditions: in vitro, cited from earlier work
[2] = system: MG-63 sarcospheres; assay: Sarcosphere formation (cancer stem cells), MG-63; type: cell-based; conditions: treated at day 3 for 7 days, PTM 5 and 20 min, S3I-201 100 μM
Procedure: (§1) FIGS. 7A-7C. Synergic effect of the combined therapy on sarcosphere number reduction. The (A) MG-63 sarcospheres and (B) 143.6 sarcospheres formed were scored (size […]) and counted. Data represent the number of sarcospheres formed as mean and standard deviation of n=6 independent experiments (*p<0.01; **p<0.001; ****p<0.0001 one-way ANOVA). (C) Concentration of NO2- and H2O2 in micromolar concentration in PTM 5, 10 or 20 min.
(§2) Osteosarcoma cells MG-63 and 143.B were cultured in sarcosphere-forming conditions (Cancer Stem Cell (CSC) isolation standard method) for 3 days and then were incubated for another 7 days in contact with PTM according to the following parameters: Helium flow rate: 1 L/min; Gap between APPJ nozzle and CSC medium surface: 10 mm; Treatment times: between 5 and 20 minutes. The CSC Medium was DMEM/F-12 supplemented with GlutaMAX™ (1X; Gibco™, cat.no 10565018, Carlsbad, CA, USA), B-27 Supplement (1:50; Life Technologies), Heparin (1:1000; Sigma), human bEGF (20 ng/ml), human bFGF (10 ng/ml; GoldBio) and sodium pyruvate. The sarcospheres were treated at day 3 with PTM (5 and 20 min), with S3I-201 (100 μM) or with the combination of both for 7 days more.

[3] = system: human 143B osteosarcoma cells; assay: Murine orthotopic osteosarcoma model, tumor volume; type: in vivo; conditions: nude mice, tibia; daily para-tumoral 100 μL PTM—20 min; 5 mg/kg S3I-201 orally three times per week; versus control
Procedure: FIG. 8. […] Tumor volume of the different groups at final day (when tumors reach 1000 mm^3) . The one-way ANOVA was performed to determine the statistical significance between control and treated groups.
To investigate the role PTM in combination with S3I-201 in osteosarcoma disease development, we used a murine orthotopic osteosarcoma model in which human 143B osteosarcoma cells are injected into the tibia of immunodeficient mice. All in vivo tumor experiments were performed with female nude mice (NMRI-Foxn1 nu/nu mice from Janvier Labs). For orthotopic primary tumor growth, 50,000 cells were injected into the right tibia of 7 weeks old mice under isoflurane anaesthesia. Mice received a daily para-tumoral injection of 100 μL of PTM—20 min or 5 mg/kg S3I-201 (orally, dissolved in corn oil) three times per week, or a combination of both treatments. In parallel, control group received a daily para-tumoral injection of Ringer's Saline or 200 μL corn oil orally. Primary tumors were detected and quantified by bioluminescent in vivo imaging five days day after cell injection and subsequently once a week until the tumors reached the study endpoint (termination criterion: primary tumor total flux>[…] photons/s). […] The one-way ANOVA was performed to determine the statistical significance between control and treated groups.

[4] = system: 143.6 sarcospheres; assay: Sarcosphere formation (cancer stem cells), 143.B; type: cell-based, human; conditions: 143.6 cells; treated at day 3 for 7 days; PTM 5 and 20 min, S3I-201 100 μM
Procedure: as §1, §2

[5] = Concentration of reactive species in plasma-treated hydrogel compositions; type: physicochemical; conditions: plasma treatment 180 seconds, concentration in the material
Source text: The RONS concentration is quantified either using the AR/HRP reagent method or the Griess reagent method for H2O2 and NOi, respectively. Also, plastic strips with test paper which allow quantification of H2O2 based on a redox reaction and NOi, also using the Griess reagent may be used when a hydrogel is used and the protein solution causes interferences with the AR/HRP reagent method or the Griess reagent method. These two methods give equivalent results.
A 50/50 blend of 0.5 weight % alginate and 2 weight % gelatin solutions were prepared (final concentration of 0.25% wt alginate and 1% wt gelatin). The mixture of alginate/gelatin was prepared is by vortexing in a ratio 1:1, 2% wt gelatin with 0.5% wt alginate for 2 minutes. Gelatin in powder is mixed with MilliQ water at 37° C. using magnetic stirring for 2 hours to obtain a 2% wt gelatin gel. 0.5% alginate was prepared by mixing alginate powder with MilliQ water using a SpeedMixer™ DAC 150.1 FVZ-K (SpeedMixer™, Germany) at 3500 r.p.m. for 15 min. The 0.25% wt alginate and 1% wt gelatin aqueous mixture was treated with an atmospheric pressure plasma jet kINPen IND® (Neoplas, Germany) operating with Argon to generate plasma. Treatment conditions: 1 Umin gas flow, 10 mm nozzle distance, and 180 seconds treatment. Treatment performed in 200 μL of mixture in a 96-well plate. […]

Compound	apoptosis ([1]; caspase-3 pathway)	cell growth and colony formation [1]	number / growth of sarcospheres at day 10 [2]	tumor volume at final day [3]	number / growth of sarcospheres at day 10 [4]	H2O2 [5] [mg/L]	NO2− [5] [mg/L]
Cc1ccc(S(=O)(=O)OCC(=O)Nc2ccc(C(=O)O)c(O)c2)cc1 [S3I-201]	apoptosis enhancement via the caspase-3 pathway	significant inhibition of cell growth and colony formation	significantly reduced	display a tumor volume in a similar way that control	significantly reduced		
Water						10.3	2.6
